Assay [1] relates to P. falciparum 3D7 parasites. In words: Time course of schizont rupture and merozoite invasion/ring formation. Type of assay: cell-based, Plasmodium falciparum. To be noted: 100 μg/mL. As for the experimental part: 50 μL of synchronous 3D7 parasites at high parasitemia (5-10%), at approximately 32 hrs trophozoites were incubated as for GIAs with or without inhibitors (100 μg/mL). From approximately 44-48 hr schizonts parasite samples were collected, every 3 hrs for 15 hrs. Cells were stained and analysed as for GIAs to evaluate parasitemia and parasite stage.
To define the mechanism of action of heparin and heparin-like molecules Applicant performed time-course studies of schizont rupture, merozoite invasion and intra-erythrocytic development of P. falciparum in the presence of heparin. Parasite stages were evaluated using flow-cytometry, differentiating between late stage trophozoites and schizont versus ring stage parasites with ethidium bromide staining. […] No inhibition of infra-erythrocytic growth was observed (data not shown).

The next assay addresses MSP1-42 (Plasmodium falciparum, UniProt Q8I0U8). Nature of the assay: Heparin-BSA binding assay. Set-up: a C-terminal 42kDa (MSP1-42) fragment; made in house; host or cells: E. coli; species or system P. falciparum. To be noted: soluble inhibitor. As for the experimental part:
(§1) Recombinant merozoite antigens were coated (1 μg/mL) onto 96 well plates (Nunc Maxisorb) in HT-PBS overnight at 4° C. Plates were washed and blocked with 1% casein, 1 hr, room temperature. Plates were incubated with heparin-BSA conjugate with soluble inhibitors and detected with anti-BSA (rabbit) (Sigma-Aldrich) antibodies and anti-rabbit -HRP. Detection was performed with 2,2′-azino-bis(3-ethylbenzthiazoline-6-sulphonic acid) (Sigma-Aldrich) monitored for colour change and measured for absorbance at 405 nm. All incubations were performed in HT-PBS 0.1% casein 0:05% Tween20, 1 hr at room temperature. Plates were washed 3 times HT-PBS 0.05% Tween20 between incubations.

Assay [2] relates to purified P. falciparum merozoites invading RBCs. In words: Invasion inhibition assay (IIA) using purified merozoites. The assay is classed as cell-based, Plasmodium falciparum. As to the method: Purified merozoites were mixed with uninfected RBCs and cultured using standard conditions in 96 well U-bottom plates at a final volume of 50 μl or 100 μl per well. Specific assay conditions were varied for different test conditions, as described in the Results section of the manuscript. Assays were typically performed under static conditions. Some assays were also performed with agitation of merozoite:RBC suspensions.
To test the activity of inhibitory compounds on invasion (Supporting Information Table 3), E64 treated schizonts were resuspended and filtered in culture medium without human serum. A typical merozoite invasion inhibition assay consisted of filtered merozoites (40 ul) added to RBC suspension (5 ul at […]; final concentration 1% hematocrit) and inhibitory compounds (5 ul at 10-times the final concentration required) in 96-well plates. Merozoite:RBCs suspensions containing inhibitors were incubated for one hour and then washed twice with culture medium to remove inhibitors, then resuspended in fresh culture media and incubated and analysed as for standard merozoite invasion assays. A number of compounds were also tested for inhibition of schizont rupture by incubating late stage schizonts (1-2% parasitaemia, 1% haematocrit in 50 ul) with a 1 in 10 dilution of compounds and monitoring the course of schizont rupture at 3 time points over an 8 hour period by flow cytometry.

Assay [3] concerns P. falciparum merozoite invasion of erythrocytes. In words: Live video microscopy of merozoite invasion. The assay is classed as cell-based, Plasmodium falciparum. Conditions: 100 μg/mL; 4529 seconds filming, 15 rupture events. As to the method:
Parasites cultures of 5-10% late stage schizonts were filmed with video microscopy in normal culture media, 37° C. 6% CO2 with humidification with or without 100 μg/mL of inhibitory compounds added to cultures as described previously. 35. Gilson P R, Crabb B S (2009) Morphology and kinetics of the three distinct phases of red blood cell invasion by Plasmodium falciparum merozoites. Int J Parasitol 39: 91-96.
A mechanism of action of heparin was next determined using live time-lapse microscopy. In control parasite cultures, schizont rupture and step-wise invasion of erythrocytes by merozoites was readily observed (FIG. 7C). During merozoite invasion of erythrocytes, Applicant observed initial contact with erythrocyte surface resulting in brief deformation of erythrocytes, merozoite reorientation, mechanical invasion resulting in erythrocyte deformation, and erythrocyte re-shaping upon complete invasion, as reported previously. […] Initial contact of merozoites with the erythrocyte surface was also observed; however, contact between erythrocytes and merozoites was not sustained, and merozoites dissociated after various lengths of time (FIG. 7D). No successful invasion events were observed; additionally, reorientation of merozoites and deformation of erythrocytes were not clearly seen, although the observation of merozoite reorientation is limited due to microscope resolution. […]

Another assay has as its target T1, lactoferrin (Homo sapiens, UniProt P02788).
T1 construct: purchased
Nature of the assay: Heparin-BSA binding assay (positive control protein). Conditions: data not shown. As to the method:
as §1

Chain of MSP1-42 (Q8I0U8 1327-1699): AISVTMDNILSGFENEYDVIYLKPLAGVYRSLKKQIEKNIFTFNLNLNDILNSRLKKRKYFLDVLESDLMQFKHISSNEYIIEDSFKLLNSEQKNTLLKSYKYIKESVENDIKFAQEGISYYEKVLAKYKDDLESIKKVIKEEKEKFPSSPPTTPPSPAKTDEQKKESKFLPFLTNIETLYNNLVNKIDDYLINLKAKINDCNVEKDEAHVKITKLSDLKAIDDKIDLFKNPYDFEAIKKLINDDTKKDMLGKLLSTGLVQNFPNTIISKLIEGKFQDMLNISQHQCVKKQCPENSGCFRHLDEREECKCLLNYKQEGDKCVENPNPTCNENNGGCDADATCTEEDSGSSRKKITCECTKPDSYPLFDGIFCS
T1 sequence (P02788 20-710, species assumed): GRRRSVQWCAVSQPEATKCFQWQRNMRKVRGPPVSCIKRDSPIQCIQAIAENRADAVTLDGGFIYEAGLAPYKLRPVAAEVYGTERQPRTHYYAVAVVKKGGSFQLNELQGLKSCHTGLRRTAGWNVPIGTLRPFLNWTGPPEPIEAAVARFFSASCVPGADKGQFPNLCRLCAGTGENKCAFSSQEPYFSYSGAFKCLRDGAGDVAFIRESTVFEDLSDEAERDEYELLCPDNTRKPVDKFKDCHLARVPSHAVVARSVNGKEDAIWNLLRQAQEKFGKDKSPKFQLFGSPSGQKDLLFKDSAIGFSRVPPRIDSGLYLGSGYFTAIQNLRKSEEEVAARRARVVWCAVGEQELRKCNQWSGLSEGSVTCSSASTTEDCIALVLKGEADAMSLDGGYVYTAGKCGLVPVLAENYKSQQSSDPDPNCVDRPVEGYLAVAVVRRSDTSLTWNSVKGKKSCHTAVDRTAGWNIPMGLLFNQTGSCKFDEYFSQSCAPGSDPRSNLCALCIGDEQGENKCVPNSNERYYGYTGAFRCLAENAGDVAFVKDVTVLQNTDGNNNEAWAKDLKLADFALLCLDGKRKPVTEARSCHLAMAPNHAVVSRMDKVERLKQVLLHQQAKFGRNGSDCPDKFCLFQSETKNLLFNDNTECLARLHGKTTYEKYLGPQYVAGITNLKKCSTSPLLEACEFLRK

With Heparin, in assay [1], the “rates of merozoite invasion and ring formation” value was “very low”; the “schizont rupture compared to control” value is listed as “some delay, but not complete inhibition”. The “inhibition of intra-erythrocytic growth” value in assay [1] (data not shown) was “No inhibition”. On MSP1-42, the “inhibition of heparin-BSA binding to recombinant MSP1-42” value is “inhibited in a concentration-dependent manner”. Further, in assay [2], the “inhibition of merozoite invasion in IIA” value is reported as “effectively inhibited merozoite invasion”. The “successful invasion events observed” value in assay [3] is listed as “no successful invasion observed”. Also, the “inhibition of lactoferrin binding to heparin-BSA” value on lactoferrin is given as “inhibited”.
